Data published in patent publication US20150065436A1, “INHIBITING INTERACTION BETWEEN HIF-1ALPHA AND p300/CBP WITH HYDROGEN BOND SURROGATE-BASED HELICES” (UNIVERSITY OF SOUTHERN CALIFORNIA, priority 2013, published 2015).

Columns and labels:
[1] = Plasma stability and biodistribution study; format: in vivo; details: 1 mg/kg intravenously, female BALB/c mice
Procedure: Plasma stability and biodistribution studies were performed in 10-week-old female BALB/c mice (Charles River) with 3 mice per time point. Briefly, HBS 1 or peptide 3 was dissolved in 70 μL of sterile PBS and administered intravenously at a dose of 1 mg/kg. Then, 1 mL of blood was collected by cardiac puncture at euthanasia at the following time points: 30 min., 1 h., 2 h., 4 h., 6 h., 8 h., 12 h., 16 h., and 24 h. after drug administration. The experiments were performed under an approved IACUC protocol at the University of Southern California.
Samples were prepared by mixing 30 μL of plasma with 20 μL of 50% MeOH and 50% aqueous 1% formic acid. The mixture was vortexed and mixed with an additional 120 μL of 0.5% formic acid in MeOH/ACN (4:6) and 20 μL of 2.0 μg/mL isoproterenol in MeOH/1% aqueous formic acid (1:1) as an internal standard. The mixture was vortexed again for 2 minutes and centrifuged at 13,000 rpm for 4 minutes. Next, 20 μL of the supernatant was transferred to a new tube and mixed with 180 μL of 50% MeOH/ACN (4:6) and 50% aqueous 1% formic acid. Standard curves were prepared by mixing the plasma from three untreated mice with 20 μL of 50% MeOH and 50% aqueous 1% formic acid prepared with HBS 1 or peptide 3 at a concentration range of 0.05-2 μg/mL.
Samples were analyzed by LC/MS/MS using an Agilent 6210 time-of-flight LC/MS system. HPLC separation was achieved using a Prevail 3u C18 100×2.1 mm column (Grace Davison, Deerfield, Ill., USA). The column temperature was maintained at 20° C. The mobile phase consisted of A (5% acetonitrile and 95% of 0.05% aqueous formic acid) and B (5% of 05% aqueous formic acid and 95% acetonitrile). The following gradient program was used: 0% B (0 min, 0.125 ml/min), 100% B (17 min, 0.125 ml/min). The total run time was 35 minutes. […]
A mouse xenograft tumor model was used to assess the in vivo efficacy of HBS 1. The relative plasma stabilities of HBS 1 and linear peptide 3 in mice were first measured. […]

[2] = tested on: 786-O renal cell carcinoma tumors
Procedure: Mice (n=6) were inoculated with 786-O cells (2×10^6 cells) into the right flank and allowed to grow tumors for 21 days. […] In parallel, a control group (n=6) received injections of PBS. Tumor sizes were measured on Days 2, 3, 4, 6, 8, 11, 13, 16, 20, 25, 28, and 33. […] At a conclusion of the study, mice were injected intraperitoneally with the near-infrared dye IR-783 contrast agent and the tumors were imaged using Xenogen IVIS 200 small animal imager.
The CrTac:NCr-Foxn1^nu mouse (Taconic, Inc.) was used for efficacy studies. […] Measurable tumors (˜100 mm^3) grew in as little as 2-3 weeks after the inoculation of 2×10^6 cells into the flank of the mice. […] Tumor sizes were measured in accordance with literature recommendations.

15N-labelled p300-CH1 = biological target: T1, 15N-labelled p300-CH1 (Homo sapiens, UniProt Q09472); experiment: 1H-15N HSQC NMR titration; format: binding; details: 69 μM CH1, CH1:HBS 1 ratios 1:1, 1:3, 1:5, 1:10
T1 construct: human p300 CH1 domain (amino acid residues 323-423); GST (cleaved yes); made in house; host or cells: E. coli BL21 (DE3)
Procedure: Protein samples were prepared as described above. Uniformly ^15N-labelled p300-CH1 was concentrated to 69 μM in NMR buffer (10 mM Tris pH 8, 50 mM NaCl, 2 mM DTT, and 207 μM ZnSO4) using a 3 kDa MWCO Amicon Ultra centrifugal filter (Millipore) and supplemented with 5% D2O. For HSQC titration experiments, data was collected on a 600 MHz Bruker four-channel NMR system at 25° C. and analyzed with the TopSpin software (Bruker). For Zn^2+ experiments, data were collected on Agilent 600 MHz at 25° C. and analyzed using Sparky3 (Univ. of California).
For the HSQC titration experiments, five and ten molar equivalents of HBS 1 in DMSO were added to ^15N-labelled p300-CH1, and the data were collected as described above. Mean chemical shift difference (ΔδNH) observed for ^1H and ^15N nuclei of various resonances were calculated as described in Williamson, “Using Chemical Shift Perturbation to Characterise Ligand Binding,” Prog. Nucl. Mag. Resonance Spectr. […]
To further characterize the interaction of HBS 1 with the CH1 domain, ^1H-^15N HSQC NMR titration experiments were performed with uniformly ^15N-labeled CH1. […] This cleft includes Trp403 and chemical shift perturbations observed for this residue support the results of the fluorescence titration experiments. […]

VEGF protein = experiment: ELISA of secreted VEGF protein levels; format: cell-based, human; details: HeLa cells, 1 μM to 10 μM, DFO 300 μM
Procedure: The ability of HBS 1 and HBS 2 to inhibit hypoxia-induced transcription of target genes (VEGFA, SLC2A1/GLUT-1, and LOX) was evaluated employing real-time quantitative RT-PCR (qRT-PCR) assays. The data from the qRT-PCR experiments are presented in FIGS. 17A-D. HBS 1 reduced expression levels of VEGF by 50% at 10 μM and greater than 60% at 50 μM showing marked dose dependence. […] Next, it was determined whether this inhibition could be observed for other therapeutically relevant hypoxia-inducible genes. […] To rule out the possibility that the compounds are only efficacious under DFO mimicked hypoxia, the efficacies of the HBS peptides in downregulating VEGF gene expression were compared under two different hypoxia mimetic conditions: DFO and prolonged incubation in an anaerobic pouch. […] Next, the effect of HBS 1 treatment on the levels of secreted VEGF protein was assessed.

[3] = at conclusion of study, IR-783 imaging

T1 sequence (Q09472 323-423): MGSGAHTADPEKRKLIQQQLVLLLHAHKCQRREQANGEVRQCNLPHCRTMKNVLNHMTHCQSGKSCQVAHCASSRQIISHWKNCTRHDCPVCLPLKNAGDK

SMILES: CC(C)C[C@H](NC(=O)[C@H](C)NC(=O)[C@H](CCCNC(=N)N)NC(=O)[C@H](C)N1CC=CCCC(=O)N[C@@H](CCC(=O)O)C(=O)N[C@@H](CC(C)C)C1=O)C(=O)N[C@@H](CC(=O)O)C(=O)N[C@@H](CCC(N)=O)C(N)=O [HBS 1, XELA*RALDQ-NH2]
- pattern of plasma decay [1]: bi-exponential pattern of decay
- plasma concentrations over the same time intervals ([1]; 30 min to 24 h): much higher concentrations as compared to peptide 3
- median tumor volume reduction compared to control group ([2]; 13 mg/kg parenterally, 5 injections, 786-O xenograft): 53%
- median tumor volume ([2]; 13 mg/kg, 786-O xenograft, volumes measured throughout the study): 138 mm^3
- NIR signal (IR-783) from the main tumor [2, 3]: significantly reduced signal
- NIR signal (IR-783) in lymph nodes, brain or other organs (metastasis) [2, 3]: no detectable NIR signal
- shift in CH1 resonances on addition of compound (15N-labelled p300-CH1): concentration-dependent shift in the resonances of several CH1 residues
- secreted VEGF protein levels (VEGF protein): downregulates VEGF protein levels in HeLa cells in a dose-dependent manner
